Data: PubChem BioAssay AID1963986 (Molecular Pharmacology Branch, DTP, NCI, 2024)
Several values for one entry are separate records, joined by “and”; a condition that tells them apart may be missing. Equal entries are not always repeated. One block for each molecule: values may come before it.

System: 171881-019-R-J1-PDC tumor spheroid viability
Assay: Anticancer human tumor 171881-019-R-J1-PDC patient-derived invasive breast carcinoma cell line growth inhibition [PI3K]
Conditions: spheroids with HUVEC and MSC; for viability, T/C: stronger effect = lower value
Text: Combinatorial screen of targeted agents with the PI3K inhibitors inavolisib, alpelisib, duvelisib, and copanlisib in multi-cell type tumor spheroids
A high-throughput screen of multi-cell type tumor spheroids was designed to identify active combinations of targeted small molecules and PI3K pathway inhibitors. Complex spheroids include a stromal component modeled by human endothelial cells (HUVEC) and fibroblasts modeled by human mesenchymal stem cells (MSCs). The concentration ranges selected for each drug and investigational agent were based upon clinically achievable concentrations if the clinical Cmax of the agent was known.
Compounds. The drugs and investigational agents: inavolisib (NSC800729), alpelisib (NSC765974), duvelisib (NSC772469), copanlisib (NSC816437), ipatasertib (NSC767898), afuresertib (NSC778305), talazoparib (NSC767125), sapanisertib (NSC764658), selumetinib (NSC741078), tovorafenib (DAY101, NSC766906), vemurafenib (NSC761431), ravoxertinib (NSC781343), sotorasib (NSC818433), MRTX1133 (NSC 836407), abemaciclib (NSC 768073), palbociclib (NSC758247), venetoclax (NSC 766270), SY5609 (NSC837396), enzalutamide (NSC755605), and darolutamide (NSC825331), were obtained from the National Cancer Institute (NCI) Developmental Therapeutics Program Chemical Repository. The FDA-approved anticancer drug set is available from the NCI Developmental Therapeutics Program. […] The stock solutions were prepared in dimethyl sulfoxide (DMSO, Sigma-Aldrich, St. Louis, MO, cat. D2650) at 800-fold the tested concentration and stored at -70 degrees C prior to their use. All drugs and investigational agents were tested over a range starting from a high concentration at or near the clinical Cmax and decreasing in half-log increments. If the clinical Cmax for an agent had not been determined, the highest concentration tested was 10 microM.
Cell Culture. All cells were maintained in an incubator at 37 degrees C and 5% CO2 with 95% humidity. The PDC lines were cultured according to standard operating procedures established by the NCI PDMR (https://pdmr.cancer.gov/sops/default.htm). All PDCs were thawed and cultured in Matrigel-coated flasks prepared with a working solution of 1X Ham's F-12 nutrient mix, without supplementation (Invitrogen, Waltham, MA, cat. 11765054), 100 U/mL penicillin-streptomycin (Invitrogen, cat. 15140122), and 2.5% Matrigel (Corning Inc., Corning, NY, cat. 354248) for the first three passages. The 354836-022-R-J1-PDC, 475296-252-R-J1-PDC, and 997726-040-R-J2-PDC lines were cultured in 6A media, which includes advanced DMEM/F-12 (Thermo Fisher Scientific, cat. 12634028), 10 mM HEPES (Thermo Fisher Scientific, cat. 15630080), 1X GlutaMAX supplement (Thermo Fisher Scientific, cat. 35050061), 0.1 mg/mL primocin (InvivoGen, San Diego, CA, cat. ant-pm-2), 10% defined fetal bovine serum, heat inactivated (HyClone Laboratories Inc., Logan, UT, cat. SH30070.03HI), 50% L-WRN conditioned media (ATCC, cat. CRL-3276), 1.25 mM N-Acetyl-L-cysteine (Sigma-Aldrich, cat. A9165), 10 mM nicotinamide (Sigma-Aldrich, cat. N0636), 1X B-27 supplement (Thermo Fisher Scientific, cat. 17504044), 1X N-2 supplement (Thermo Fisher Scientific, cat. 17502048), and 10 microM Y-27632 dihydrochloride (Tocris Bioscience, Bristol, United Kingdom, cat. 1254). The 624824-186-R-J2-PDC line was cultured in 6C/Colon 1B media, which includes all 6A media components plus 50 ng/mL human EGF recombinant protein (Thermo Fisher Scientific, cat. PHG0311). […]
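Also: spheroids exposed to compound for 7 days before viability read.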
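For viability, T/C in this document: 100% = DMSO vehicle-treated spheroids.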

IC50 (curve of first compound, second compound 0.0316 µM): 5340 nM
IC50 (curve of first compound, second compound 0.1 µM): 4400 nM
IC50 (curve of first compound, second compound 0.316 µM): 1030 nM
IC50 (curve of first compound, second compound 1 µM): < 31.6 nM
IC50 (curve of first compound, second compound 3.16 µM): < 31.6 nM
IC50 (curve of first compound, second compound 10 µM): < 31.6 nM
SMILES: CC1(C)CCC(Nc2ncc(C(F)(F)F)c(-c3c[nH]c4c(P(C)(C)=O)c(C#N)ccc34)n2)CN1 (stereo unspecified) + Cc1nc(NC(=O)N2CCCC2C(N)=O)sc1-c1ccnc(C(C)(C)C(F)(F)F)c1
viability, T/C (second compound 0.0316 µM, first compound 0.0316 µM): 66.7%
viability, T/C (second compound 0.0316 µM, first compound 0.1 µM): 65%
viability, T/C (second compound 0.0316 µM, first compound 0.316 µM): 73.8%
viability, T/C (second compound 0.0316 µM, first compound 1 µM): 79.6%
viability, T/C (second compound 0.0316 µM, first compound 3.16 µM): 77.5%
viability, T/C (second compound 0.0316 µM, first compound 10 µM): 22.9%
viability, T/C (second compound 0.1 µM, first compound 0.0316 µM): 59.4%
viability, T/C (second compound 0.1 µM, first compound 0.1 µM): 65%
viability, T/C (second compound 0.1 µM, first compound 0.316 µM): 62.9%
viability, T/C (second compound 0.1 µM, first compound 1 µM): 71.4%
viability, T/C (second compound 0.1 µM, first compound 3.16 µM): 63.4%
viability, T/C (second compound 0.1 µM, first compound 10 µM): 16.3%
viability, T/C (second compound 0.316 µM, first compound 0.0316 µM): 46.7%
viability, T/C (second compound 0.316 µM, first compound 0.1 µM): 49%
viability, T/C (second compound 0.316 µM, first compound 0.316 µM): 49.6%
viability, T/C (second compound 0.316 µM, first compound 1 µM): 55.5%
viability, T/C (second compound 0.316 µM, first compound 3.16 µM): 47.8%
viability, T/C (second compound 0.316 µM, first compound 10 µM): 7.89%
viability, T/C (second compound 1 µM, first compound 0.0316 µM): 31.4%
viability, T/C (second compound 1 µM, first compound 0.1 µM): 30.6%
viability, T/C (second compound 1 µM, first compound 0.316 µM): 33.4%
viability, T/C (second compound 1 µM, first compound 1 µM): 32.7%
viability, T/C (second compound 1 µM, first compound 3.16 µM): 28.7%
viability, T/C (second compound 1 µM, first compound 10 µM): 3.22%
viability, T/C (second compound 3.16 µM, first compound 0.0316 µM): 15.9%
viability, T/C (second compound 3.16 µM, first compound 0.1 µM): 17%
viability, T/C (second compound 3.16 µM, first compound 0.316 µM): 17.7%
viability, T/C (second compound 3.16 µM, first compound 1 µM): 18.8%
viability, T/C (second compound 3.16 µM, first compound 3.16 µM): 13.3%
viability, T/C (second compound 3.16 µM, first compound 10 µM): 1.08%
viability, T/C (second compound 10 µM, first compound 0.0316 µM): 4.21%
viability, T/C (second compound 10 µM, first compound 0.1 µM): 4.48%
viability, T/C (second compound 10 µM, first compound 0.316 µM): 5.01%
viability, T/C (second compound 10 µM, first compound 1 µM): 5.05%
viability, T/C (second compound 10 µM, first compound 3.16 µM): 2.85%
viability, T/C (second compound 10 µM, first compound 10 µM): 0.32%

SMILES: C[C@@H](NC(=O)c1ncnc(N)c1Cl)c1ncc(C(=O)Nc2cc(C(F)(F)F)c(Cl)cn2)s1
viability, T/C (compound 0.0316 µM): 91.1% [middle of 4 runs]
viability, T/C (compound 0.1 µM): 89.8% [middle of 4 runs]
viability, T/C (compound 0.316 µM): 90.8% [middle of 4 runs]
viability, T/C (compound 1 µM): 83.6% [middle of 4 runs]
viability, T/C (compound 3.16 µM): 72.5% [middle of 4 runs]
viability, T/C (compound 10 µM): 49.5% [middle of 4 runs]

IC50 (curve of compound): 11.9 nM [middle of 4 runs]
SMILES: CC(C)n1nc(-c2ccc3oc(N)nc3c2)c2c(N)ncnc21
viability, T/C (compound 0.001 µM): 76.3% and 86.4% and 84.6% (2×)
viability, T/C (compound 0.00316 µM): 78.9% [middle of 4 runs]
viability, T/C (compound 0.01 µM): 53.9% [middle of 4 runs]
viability, T/C (compound 0.0316 µM): 24% [middle of 4 runs]
viability, T/C (compound 0.1 µM): 3.78% [middle of 4 runs]

IC50 (curve of compound): 502 nM [middle of 4 runs]
SMILES: Cn1nccc1Nc1nccc(-c2ccn(C(CO)c3ccc(Cl)c(F)c3)c(=O)c2)n1 (stereo unspecified)
viability, T/C (compound 0.0316 µM): 93.8% [middle of 4 runs]
viability, T/C (compound 0.1 µM): 84.3% [middle of 4 runs]
viability, T/C (compound 0.316 µM): 57.5% [middle of 4 runs]
viability, T/C (compound 1 µM): 37.7% [middle of 4 runs]
viability, T/C (compound 3.16 µM): 26.1% [middle of 4 runs]
viability, T/C (compound 10 µM): 20.1% and 21.8% and 21.4% (2×)
